From ChEMBL document CHEMBL5634160, “Synthesis, biological evaluation and action mechanism of 7H-[1,2,4] triazolo [3,4-b] [1,3,4] thiadiazine-phenylhydrazone derivatives as α-glucosidase inhibitors” (Eur J Med Chem, 2023)

Experiments:
Alpha-glucosidase = Alpha-glucosidase (Saccharomyces cerevisiae S288c, UniProt P53341+P38158+P07265); test: Inhibition of Saccharomyces cerevisiae alpha-glucosidase using nitrophenol-alpha-D-glucopyranoside (pNPG) as substrate incubated for 15 mins; assay type: protein assay
[1] = system: COc1cc(/C=N/Nc2nnc3n2N=C(c2ccccc2)CS3)cc(OC)c1O; test: Mixed-type inhibition of Saccharomyces cerevisiae alpha-glucosidase using nitrophenol-alpha-D-glucopyranoside (pNPG) as substrate assessed as Vmax at 24 to 48 uM measured after 15 mins by Lineweaver-Burk plot analysis; assay type: protein assay; details: dose 24-48 µM

Chain of Alpha-glucosidase (Saccharomyces cerevisiae S288c) (P07265 whole entry, looked up): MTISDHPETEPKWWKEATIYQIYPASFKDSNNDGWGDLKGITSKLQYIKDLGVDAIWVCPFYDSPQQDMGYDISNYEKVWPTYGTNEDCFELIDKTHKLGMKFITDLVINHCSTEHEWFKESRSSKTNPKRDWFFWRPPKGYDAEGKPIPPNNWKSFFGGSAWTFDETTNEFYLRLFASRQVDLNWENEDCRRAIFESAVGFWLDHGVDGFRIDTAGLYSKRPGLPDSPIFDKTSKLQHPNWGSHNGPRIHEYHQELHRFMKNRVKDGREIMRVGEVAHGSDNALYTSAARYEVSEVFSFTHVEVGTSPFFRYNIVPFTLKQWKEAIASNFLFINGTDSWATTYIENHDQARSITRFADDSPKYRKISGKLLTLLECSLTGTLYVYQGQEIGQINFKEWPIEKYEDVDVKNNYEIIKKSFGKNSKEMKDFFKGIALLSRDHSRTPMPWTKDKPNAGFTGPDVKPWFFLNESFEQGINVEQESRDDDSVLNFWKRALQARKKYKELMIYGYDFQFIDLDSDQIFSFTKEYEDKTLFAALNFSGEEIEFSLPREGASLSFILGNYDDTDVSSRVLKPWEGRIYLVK
Chain of Alpha-glucosidase (Saccharomyces cerevisiae S288c) (P38158 whole entry, looked up): as the sequence (P07265 whole entry, looked up) above, with R273T, V305L counted along it
Chain of Alpha-glucosidase (Saccharomyces cerevisiae S288c) (P53341 whole entry, looked up): as the sequence (P07265 whole entry, looked up) above, with R273T, F467L counted along it

| Molecule | IC50 (Alpha-glucosidase) [µM] | Vmax [1] [µM/L.min] |
| --- | --- | --- |
| COc1cc(/C=N/Nc2nnc3n2N=C(c2ccccc2)CS3)cc(OC)c1OC | 91.47 |  |
| Oc1ccc(/C=N/Nc2nnc3n2N=C(c2ccccc2)CS3)c(O)c1 | 32.96 |  |
| COc1ccccc1/C=N/Nc1nnc2n1N=C(c1ccccc1)CS2 | 114.9 |  |
| Clc1cccc(/C=N/Nc2nnc3n2N=C(c2ccccc2)CS3)c1 | 42.36 |  |
| Clc1ccccc1/C=N/Nc1nnc2n1N=C(c1ccccc1)CS2 | 41.83 |  |
| COc1ccc(/C=N/Nc2nnc3n2N=C(c2ccccc2)CS3)cc1OC | 140.2 |  |
| Alpha-glucosidase (Saccharomyces cerevisiae S288c) (from UniProt P53341+P38158+P07265) |  | 0.07 |
| Oc1cccc(/C=N/Nc2nnc3n2N=C(c2ccccc2)CS3)c1 | 135.7 |  |
